Experiments:
[1] = biological target: T1, Tyrosine-protein phosphatase non-receptor type 1 (Homo sapiens, UniProt P18031); assay: Inhibition of human PTP1B assessed as reduction in hydrolysis using DIFMUP as substrate incubated for 30 mins in presence of DTT by Fluorescence based method
T1 sequence (P18031 whole entry): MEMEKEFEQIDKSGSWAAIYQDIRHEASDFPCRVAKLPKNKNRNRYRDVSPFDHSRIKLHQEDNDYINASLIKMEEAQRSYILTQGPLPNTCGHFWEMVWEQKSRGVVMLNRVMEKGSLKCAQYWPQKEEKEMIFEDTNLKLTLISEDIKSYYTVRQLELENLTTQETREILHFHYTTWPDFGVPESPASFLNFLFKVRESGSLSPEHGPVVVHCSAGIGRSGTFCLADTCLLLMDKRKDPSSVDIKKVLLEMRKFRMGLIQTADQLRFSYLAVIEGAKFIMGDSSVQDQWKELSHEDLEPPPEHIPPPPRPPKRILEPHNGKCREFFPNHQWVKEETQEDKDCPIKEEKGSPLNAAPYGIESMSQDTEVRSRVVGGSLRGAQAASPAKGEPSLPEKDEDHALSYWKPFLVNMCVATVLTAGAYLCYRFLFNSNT

[2] = biological target: T2, Protein tyrosine phosphatase type IVA 1 (Homo sapiens, UniProt Q93096); assay: Inhibition of PTP4A1 (unknown origin)
T2 sequence (Q93096 whole entry): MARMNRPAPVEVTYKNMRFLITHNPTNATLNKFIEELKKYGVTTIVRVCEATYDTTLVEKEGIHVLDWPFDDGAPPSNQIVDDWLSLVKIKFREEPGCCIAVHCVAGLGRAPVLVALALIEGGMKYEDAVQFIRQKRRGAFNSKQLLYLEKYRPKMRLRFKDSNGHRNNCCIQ

[3] = biological target: T3, Protein tyrosine phosphatase type IVA 2 (Homo sapiens, UniProt Q12974); assay: Inhibition of PTP4A2 (unknown origin)
T3 sequence (Q12974 whole entry): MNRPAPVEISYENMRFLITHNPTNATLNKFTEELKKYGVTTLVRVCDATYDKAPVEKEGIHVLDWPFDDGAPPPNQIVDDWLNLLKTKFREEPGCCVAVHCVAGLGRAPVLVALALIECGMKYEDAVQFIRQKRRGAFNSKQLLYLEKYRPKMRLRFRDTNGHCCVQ

[4] = biological target: Protein tyrosine phosphatase type IVA 3 (Homo sapiens, UniProt O75365); assay: Inhibition of PTP4A3 (unknown origin)
Chain of Protein tyrosine phosphatase type IVA 3 (O75365 whole entry): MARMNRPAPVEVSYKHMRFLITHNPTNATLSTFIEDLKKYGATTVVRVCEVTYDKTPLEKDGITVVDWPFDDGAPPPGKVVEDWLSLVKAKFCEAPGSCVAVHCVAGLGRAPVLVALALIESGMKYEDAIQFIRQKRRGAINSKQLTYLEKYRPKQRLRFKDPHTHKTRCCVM

IC50 [1] [nM]	IC50 [2] [nM]	IC50 [3] [nM]	IC50 [4] [nM]	SMILES
> 80000	–	–	–	N=C1C(=O)NC(=O)c2cc(-c3ccccc3)sc21
–	> 20000	–	–	Cc1cc2c(cc1C)CN(c1cccc(C(=O)N/N=C/c3ccc(C(=O)O)cc3)c1)C2
–	300	300	300	N=C(N)c1ccc(OCCCCCOc2ccc(C(=N)N)cc2)cc1 [PENTAMIDINE]

— ChEMBL document CHEMBL4433263, “Tapping the therapeutic potential of protein tyrosine phosphatase 4A with small molecule inhibitors” (Bioorg Med Chem Lett, 2019)
